Values of other authors, collected in paper PMC11211886 (Frontiers in Pharmacology, 2024).
Where two headings read alike, the source gives them in different places.

What was measured:
[1] = cited from earlier work; for incidence of ≥Grade 3 GI toxicity, including diarrhea and colitis: clinical trials, ref FDA, 2014, FDA, 2017, 2018, 2021
[2] = ref FDA, cited from earlier work
P-gp = test system: P-gp; design: method as in FDA, 2014; FDA, 2017; FDA, 2018; FDA, 2021; details: ref FDA, 2014, 2017, 2018, 2021; cited from earlier work

Row | Compound | incidence of ≥Grade 3 GI toxicity, including diarrhea and colitis [1] | exposure in the intestines versus plasma [2]; 2014 | P-gp substrate status (P-gp) | diarrhea, any-grade adverse event ([1]; ref Wang et al., 2023) | diarrhea, grade ≥3 AE ([1]; ref Wang et al., 2023) | exposure in the intestines versus plasma [2]; 2017 | diarrhea (TEAE) incidence ([1]; patients with indolent and aggressive lymphoma, phase II, ref Dreyling et al., 2017) | exposure in the intestines versus plasma [2]; 2018
1 | CC[C@H](Nc1ncnc2[nH]cnc12)c1nc2cccc(F)c2c(=O)n1-c1ccccc1 [idelalisib, Idelalisib] | higher than 10% | 50 fold | P-gp substrates | – | – | – | – | –
2 | C[C@H](Nc1ncnc2[nH]cnc12)c1cc2cccc(Cl)c2c(=O)n1-c1ccccc1 [duvelisib, Duvelisib] | higher than 10% | – | P-gp substrates | 47% | 12% | 100 fold | – | –
3 | COc1c(OCCCN2CCOCC2)ccc2c1N=C(NC(=O)c1cnc(N)nc1)N1CCN=C21 [copanlisib, Copanlisib] | higher than 10% | – | P-gp substrates | – | – | – | 40.5% | 190 fold
